Measured values published in the supplement of paper PMC10307832.

What was measured:
Test in all cases: relative viability (nuclei count vs DMSO), 5 days (fraction); higher = more cells survive
[1] = compound: NCC(=O)Nc1ccc(-n2nc(C(F)(F)F)cc2-c2ccc3c(ccc4ccccc43)c2)cc1 + O=C(CCCCCCC(=O)Nc1ccccc1)NO [Vorinostat] (partner 1 µM)
Method in brief: (§1)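 After 5 days of treatment, lung cancer cells in 1536-well plates were fixed and stained in a single step (final 0.05% Triton X-100, 1% formaldehyde, 1 ug/ml Hoechst) and their nuclei counted on 4× images. Treatment had been applied by pin tool the day after seeding as one drug alone or as a fixed anchor-drug dose with five library-drug doses (not always all listed) in √10 steps. Relative viability is the nuclei count of treated wells divided by that of vehicle wells, and values are medians of duplicate plates.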

[2] = compound: C1CSC2=C(C(=O)N1)SC3=C2C=C(C=C3)O [kb NB 142-70] + CC(=O)c1c(C)c2cnc(Nc3ccc(N4CCNCC4)cn3)nc2n(C2CCCC2)c1=O [Palbociclib] (partner 0.5 µM)
Method in brief: as §1

[3] = compound: NCC(=O)Nc1ccc(-n2nc(C(F)(F)F)cc2-c2ccc3c(ccc4ccccc43)c2)cc1 + CC(C)C[C@H](NC(=O)[C@H](Cc1ccccc1)NC(=O)c1cnccn1)B(O)O [Bortezomib] (partner 0.002 µM)
Method in brief: as §1

[4] = compound: C1CSC2=C(C(=O)N1)SC3=C2C=C(C=C3)O [kb NB 142-70] + C[C@@H](Oc1cc(-c2cnn(C3CCNCC3)c2)cnc1N)c1c(Cl)ccc(F)c1Cl [Crizotinib] (partner 1 µM)
Method in brief: as §1

Cell Line	relative viability ([1]; first compound 0.02 µM)	relative viability ([1]; first compound 0.06325 µM)	relative viability ([1]; first compound 0.2 µM)	relative viability ([1]; first compound 0.6325 µM)	relative viability ([1]; first compound 2 µM)	relative viability ([2]; first compound 0.1 µM)	relative viability ([2]; first compound 1 µM)	relative viability ([2]; first compound 3.162 µM)	relative viability ([3]; first compound 0.02 µM)	relative viability ([3]; first compound 0.06325 µM)	relative viability ([3]; first compound 0.2 µM)	relative viability ([3]; first compound 0.6325 µM)	relative viability ([3]; first compound 2 µM)	relative viability ([4]; first compound 0.1 µM)	relative viability ([4]; first compound 1 µM)	relative viability ([4]; first compound 3.162 µM)
NCI-H1437	0.834	0.866	0.887	0.802	0.754	0.337	0.297	0.279	0.531	0.422	0.536	0.487	0.499	1.01	0.997	0.946
NCI-H1650	0.71	0.676	0.556	0.692	0.559	0.362	0.39	0.321	0.235	0.215	0.188	0.191	0.195	0.833	1.01	1.08
NCI-H1651	0.593	0.442	0.543	0.612	0.554	0.527	0.555	0.526	0.961	0.919	0.977	0.909	0.985	0.908	0.842	0.879
NCI-H1666	1.03	1.07	1.13	0.938	0.944	0.581	0.591	0.693	0.788	0.769	1.03	0.951	0.906	1.09	0.871	0.676
NCI-H1734	0.773	0.848	0.827	0.773	0.817	0.365	0.363	0.279	1.1	0.957	0.886	1.02	0.891	0.68	0.652	0.383
NCI-H1755	0.758	0.824	0.788	0.768	0.833	0.466	0.411	0.44	0.892	0.935	0.958	0.946	0.978	0.852	0.923	0.915
NCI-H1915	0.525	0.555	0.56	0.497	0.552	0.498	0.52	0.343	0.889	1.01	0.964	0.932	1.03	0.887	0.915	0.481
NCI-H1975	0.728	0.729	0.804	0.704	0.747	0.599	0.662	0.435	0.37	0.414	0.44	0.345	0.426	0.899	0.959	0.842
NCI-H1993	0.798	0.952	0.656	0.969	0.862	0.688	0.583	0.638	1.1	1.28	1.08	1.15	1.21	0.842	0.892	0.854
NCI-H2009	0.698	0.741	0.792	0.805	0.766	0.286	0.304	0.285	0.911	1.05	0.825	0.963	1.08	1	1.12	0.652
